Results from US6479466B1, “Compositions for treating viral infections, and methods therefor” (University of Maryland, priority 1999, dated 2002).

Test system: clinical isolates of HIV-1 (EJC-1 to EJC-4)
Test: p24 antigen production in activated PBMCs infected with clinical isolates
Assay type: cell-based
Protocol: For infection studies involving PBMCs, cells were stimulated with 2.5 or 10 μg/ml phytohemagglutinin (PHA; Boehringer Mannheim, Indianapolis, Ind.) for 3 days. Stimulated PBMCs were infected by incubation with virus at a multiplicity of infection of 1000 TCID50/10^6 PBMC for 2 hours. PBMCs were then washed three times with PBS and cultured in 5% CO2 at 37° C., in RPMI/10% FBS supplemented with 10 units/ml IL-2 (Boehringer Mannheim) and drugs as appropriate. PBMCs were seeded in 96-well flat-bottom plates at a density of 2×10^5 PBMCs/200 μl. Following 3 days of culture half of the medium was replaced with fresh medium containing IL-2 and drugs. After 7 days of culture, HIV-1 p24 antigen production in the culture supernatant was assayed by ELISA (Coulter, Hialeah, Fla.). The concentration of nucleoside analog, alone and in combination with resveratrol, that reduced the p24 antigen value of the untreated control by 90% (IC90) was calculated by using nonparametric regression analysis. The analysis used the median-effect equation, Fa=1/[1+(Dm/D)]^m, where D is the dose, Fa is the fraction affected, and Dm is the dose required to produce the median effect.
The increase of ddI-antiviral activity by RV was next evaluated in a panel of clinical isolates of HIV-1. […]

OC[C@@H]1CC[C@H](n2cnc3c(O)ncnc32)O1 [ddI, 2′,3′-dideoxyinosine]
enhancement of antiviral activity of ddI (1 μM ddI plus 5 μM RV, depending on the clinical isolate): 18-185 fold
enhancement of ddI activity (1 μM ddI plus 10 μM RV): 88-1200 fold
